# From US20130310256A1, “HERBICIDAL COMPOSITIONS COMPRISING 4-AMINO-3-CHLORO-5-FLUORO-6-(4-CHLORO-2-FLUORO-3-METHOXYPHENYL) PYRIDINE-2-CARBOXYLIC ACID OR A DERIVATIVE THEREOF AND VLCFA AND LIPID SYNTHESIS INHIBITING HERBICIDES” (DOW AGROSCIENCES LLC, priority 2008, published 2013)
# Several values for one entry are separate records, joined by “and”; a condition that tells them apart may be missing. Identical values can stand only once.
# Tests used:
# ECHCG = test: Example I: postemergence foliar-applied weed control, greenhouse; format: in vivo, Echinochloa crus-galli (L.) Beauv. (barnyardgrass); conditions: for Visual Weed Control (%) - 22 DAA ECHCG Obs / Visual Weed Control (%) - 20 DAA ECHCG Obs: foliar
# In short: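 Plants grown in loam/sandy loam–calcareous grit soil (80:20) in greenhouse, 14 hr photoperiod, about 29° C. day/26° C. night, treated postemergence at first to fourth true leaf stage. Foliar spray at 187 L/ha with 1.25% (v/v) crop oil concentrate; Compound A dosed on acid equivalent basis, partners on active ingredient basis.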
# DIGSA = test: as above; format: in vivo, Digitaria sanguinalis (L.) Scop. (large crabgrass); conditions: 20 DAA
# Source text: Seeds or nutlets of the desired test plant species were planted in a soil matrix prepared by mixing a loam or sandy loam soil (e.g., 28.6 percent silt, 18.8 percent clay, and 52.6 percent sand, with a pH of about 5.8 and an organic matter content of about 1.8 percent) and calcareous grit in an 80 to 20 ratio. The soil matrix was contained in plastic pots with a volume of 1 quart and a surface area of 83.6 square centimeters (cm^2). When required to ensure good germination and healthy plants, a fungicide treatment and/or other chemical or physical treatment was applied. The plants were grown for 8-22 days in a greenhouse with an approximate 14 hr photoperiod which was maintained at about 29° C. during the day and 26° C. during the night. Nutrients (Peters Excel® 15-5-15 5-Ca 2-Mg and iron chelate) were applied in the irrigation solution as needed and water was added on a regular basis. Supplemental lighting was provided with overhead metal halide 1000-Watt lamps as necessary. The plants were employed for testing when they reached the first through fourth true leaf stage.
# Treatments consisted of the acid or esters of 4-amino-3-chloro-5-fluoro-6-(4-chloro-2-fluoro-3-methoxy-phenyl)pyridine-2-carboxylic acid (Compound A), each formulated as an SC (suspension concentrate), and various herbicidal components alone and in combination. Forms of compound A were applied on an acid equivalent basis.
# Other herbicidal components were applied on an active ingredient basis and included very long chain fatty acid (VLCFA) synthesis-inhibiting and fatty acid/lipid synthesis-inhibiting herbicides acetochlor (technical grade material), acetochlor+dichlormid formulated as Topnotch®, pretilachlor (technical grade material), butachlor formulated as Butachlor EC, fentrazamide formulated as Fentrazamide EC, thiobencarb formulated as Bolero® 8EC, cafenstrole formulated as Himeadow® WP or Lapost® Flowable, benfuresate formulated as Full Shot®, dimethenamid-P formulated as Outlook®, indanofan (technical grade material), flufenacet formulated as Define® DF, mefenacet (technical grade material), S-metolachlor formulated as Dual® II Magnum, pethoxamid formulated as Successor® 600, and pyroxasulfone (technical grade material).
# Treatment requirements were calculated based upon the rates being tested, the concentration of active ingredient or acid equivalent in the formulation, and a 12 mL application volume at a rate of 187 L/ha.
# For treatments comprised of formulated compounds, measured amounts of compounds were placed individually in 25 mL glass vials and diluted in a volume of 1.25% (v/v) Agri-Dex® crop oil concentrated to obtain 12× stock solutions. […] Application solutions were prepared by adding an appropriate amount of each stock solution (e.g., 1 mL) and diluted to the appropriate final concentrations with the addition of 10 mL of an aqueous mixture of 1.25% (v/v) crop oil concentrate so that the final spray solutions contained 1.25+/−0.05% (v/v) crop oil concentrate.
# For treatments comprised of technical compounds, weighed amounts can be placed individually in 25 mL glass vials and dissolved in a volume of 97:3 v/v acetone/DMSO to obtain 12× stock solutions. […] Application solutions can be prepared by adding an appropriate amount of each stock solution (e.g., 1 mL) and diluted to the appropriate final concentrations with the addition of 10 mL of an aqueous mixture of 1.5% (v/v) crop oil concentrate so that the final spray solutions contain 1.25% (v/v) crop oil concentrate. When technical materials are used, the concentrated stock solutions can be added to the spray solutions so that the final acetone and DMSO concentrations of the application solutions are […], respectively. […]
smiles,measurement,setting,value
"CCS(=O)(=O)Oc1ccc2c(c1)C(C)(C)CO2 [Benfuresate, 2,3-dihydro-3,3-dimethyl-5-benzofuranyl ethanesulfonate]",Visual Weed Control (%) - 22 DAA ECHCG Obs,ECHCG; 75 gai/ha,0%
same,Visual Weed Control (%) - 22 DAA ECHCG Obs,ECHCG; 150 gai/ha,0%
same,Visual Weed Control (%) - 22 DAA ECHCG Obs,ECHCG; 300 gai/ha,0%
"CCN(CC)C(=O)n1cnc(S(=O)(=O)c2c(C)cc(C)cc2C)n1 [Cafenstrole, N,N-diethyl-3-[(2,4,6-trimethylphenyl)sulfonyl]-1H-1,2,4-triazole-1-carboxamide]",Visual Weed Control Obs,"ECHCG; 20 DAA, 26.25 gai/ha Himeadow WP",10%
same,Visual Weed Control Obs,"ECHCG; 20 DAA, 52.5 gai/ha Himeadow WP",15%
same,Visual Weed Control Obs,"ECHCG; 20 DAA, 105 gai/ha Himeadow WP",15%
same,Visual Weed Control Obs,"ECHCG; 21 DAA, 210 gai/ha Lapost Flowable",0%
"COc1c(Cl)ccc(-c2nc(C(=O)O)c(Cl)c(N)c2F)c1F [Compound A Acid, 4-amino-3-chloro-6-(4-chloro-2-fluoro-3-methoxyphenyl)-5-fluoropyridine-2-carboxylic acid]",Visual Weed Control (%) - 22 DAA ECHCG Obs,ECHCG; 5.3 gae/ha,65%
same,Visual Weed Control (%) - 22 DAA ECHCG Obs,ECHCG; 10.6 gae/ha,55%
same,Visual Weed Control Obs,"ECHCG; 20 DAA, 4.38 gae/ha",60% and 50%
same,Visual Weed Control Obs,"ECHCG; 21 DAA, 17.5 gae/ha",88%
same,Visual Weed Control Obs,"ECHCG; 21 DAA, 35 gae/ha",85%
same,Visual Weed Control Obs,DIGSA; 4.38 gae/ha,30%
same,Visual Weed Control Obs,DIGSA; 17.5 gae/ha,40%
"COc1c(Cl)ccc(-c2nc(C(=O)OCc3ccccc3)c(Cl)c(N)c2F)c1F [Compound A Benzyl Ester, benzyl ester of 4-amino-3-chloro-5-fluoro-6-(4-chloro-2-fluoro-3-methoxy-phenyl)pyridine-2-carboxylic acid]",Visual Weed Control (%) - 22 DAA ECHCG Obs,ECHCG; 5.3 gae/ha,40%
same,Visual Weed Control (%) - 20 DAA ECHCG Obs,ECHCG; 8 gae/ha,63%
same,Visual Weed Control (%) - 22 DAA ECHCG Obs,ECHCG; 8 gae/ha,25%
same,Visual Weed Control (%) - 22 DAA ECHCG Obs,ECHCG; 10.6 gae/ha,60%
same,Visual Weed Control (%) - 20 DAA ECHCG Obs,ECHCG; 16 gae/ha,78%
same,Visual Weed Control (%) - 22 DAA ECHCG Obs,ECHCG; 16 gae/ha,50%
same,Visual Weed Control Obs,"ECHCG; 20 DAA, 4.38 gae/ha",70%
same,Visual Weed Control Obs,"ECHCG; 20 DAA, 8.75 gae/ha",70%
same,Visual Weed Control Obs,"ECHCG; 20 DAA, 16 gae/ha",78%
same,Visual Weed Control Obs,"ECHCG; 20 DAA, 32 gae/ha",83%
same,Visual Weed Control (%) - 20 DAA ECHCG Obs,ECHCG; 32 gae/ha,83%
same,Visual Weed Control (%) - 22 DAA ECHCG Obs,ECHCG; 32 gae/ha,85%
same,Visual Weed Control Obs,DIGSA; 4.38 gae/ha,50% and 40%
same,Visual Weed Control Obs,DIGSA; 8.75 gae/ha,60% and 40% and 30%
same,Visual Weed Control Obs,DIGSA; 17.5 gae/ha,30%
"CCCOCCN(C(=O)CCl)c1c(CC)cccc1CC [Pretilachlor, 2-chloro-N-(2,6-diethylphenyl)-N-(2-propoxyethyl)acetamide]",Visual Weed Control Obs,"ECHCG; 20 DAA, 37.5 gai/ha",10%
same,Visual Weed Control Obs,"ECHCG; 20 DAA, 75 gai/ha",10%
same,Visual Weed Control Obs,"ECHCG; 20 DAA, 150 gai/ha",0%
same,Visual Weed Control Obs,DIGSA; 37.5 gai/ha,0%
same,Visual Weed Control Obs,DIGSA; 75 gai/ha,0%
same,Visual Weed Control Obs,DIGSA; 150 gai/ha,0%
